# Measured values from paper PMC9203742 (Nature Communications, 2022).
# Values joined by “and” are separate entries in the source; they are usually repeats but may differ in a detail not shown here. Equal entries are not always repeated.
# How the values were obtained:
# [1] = test system: Purkinje cells in cerebellar slices from mGlu1^+/+ mice; assay: chemLTD recording (PF-EPSC) in Purkinje cells of acute cerebellar slices, mGlu1^+/+ mice; assay type: cell-based, mouse; conditions: for PF-EPSC amplitude relative to time 0: mGlu1+/+, individual cells
# Experimental: Sagittal cerebellar slices were cut with a microslicer (Linear slicer Pro7; DOSAKA EM) in cutting solution buffer and then incubated in ACSF gassed with 5% CO2 and 95% O2 at room temperature.
# Whole-cell patch-clamp recordings were made from visually identified Purkinje cells using a 60× water-immersion objective attached to an upright microscope (BX51WI, Olympus) at room temperature, as described previously. […] Picrotoxin (100 µM; Sigma) was always added to the saline to block inhibitory synaptic transmission.
# To evoke EPSCs derived from CF (CF-EPSCs) and PF (PF-EPSCs) inputs onto Purkinje cells, square pulses were applied through a stimulating electrode placed on the granular layer and the molecular layer (50 µm away from the pial surface), respectively. The selective stimulation of CFs and PFs was confirmed by the paired-pulse depression (PPD) and paired-pulse facilitation (PPF) of EPSC amplitudes at a 50-ms interstimulus interval (ISI), respectively.
# For the LTD sessions, PF-EPSCs were recorded successively at a frequency of 0.1 Hz from Purkinje cells clamped at –80 mV. After a stable PF-EPSC amplitude had been observed for at least 5 min, a conjunctive stimulation that consisted of 30 single PF stimuli together with a 200 ms depolarizing pulse from a holding potential of –60 to +20 mV was applied for LTD induction.
# To chemically induce LTD (chemLTD), 50 µM (S)-3,5-dihydroxyphenylglycine (DHPG) or 1 µM Pd(sulfo-bpy) was applied for 10 min in a current-clamp mode. We often observed a transient decrease in PF-EPSC amplitude after the application of each drug probably because Purkinje cells under current-clamp conditions excite spontaneously to suppress presynaptic function through the retrograde signaling. Access resistances were monitored every 10 s by measuring the peak currents in response to 2 mV, 50-ms hyperpolarizing steps throughout the experiments; the measurements were discarded if the resistance changed by >20% of its original value. The normalized EPSC amplitude on the ordinate represents the EPSC amplitude for the average of six traces for 1 min divided by that of the average of six traces for 1 min immediately before the conjunctive stimulation or the drug application.
# [2] = target: T1, mGlu1(N264H) mutant (Rattus norvegicus, UniProt P23385, N264H); assay: Fura-2 Ca2+ imaging in HEK293 cells expressing mGlu1(N264H); assay type: cell-based
# T1 construct: expressed in transfected cells; host or cells: HEK293
# T1 sequence (P23385 19-1199 N264H): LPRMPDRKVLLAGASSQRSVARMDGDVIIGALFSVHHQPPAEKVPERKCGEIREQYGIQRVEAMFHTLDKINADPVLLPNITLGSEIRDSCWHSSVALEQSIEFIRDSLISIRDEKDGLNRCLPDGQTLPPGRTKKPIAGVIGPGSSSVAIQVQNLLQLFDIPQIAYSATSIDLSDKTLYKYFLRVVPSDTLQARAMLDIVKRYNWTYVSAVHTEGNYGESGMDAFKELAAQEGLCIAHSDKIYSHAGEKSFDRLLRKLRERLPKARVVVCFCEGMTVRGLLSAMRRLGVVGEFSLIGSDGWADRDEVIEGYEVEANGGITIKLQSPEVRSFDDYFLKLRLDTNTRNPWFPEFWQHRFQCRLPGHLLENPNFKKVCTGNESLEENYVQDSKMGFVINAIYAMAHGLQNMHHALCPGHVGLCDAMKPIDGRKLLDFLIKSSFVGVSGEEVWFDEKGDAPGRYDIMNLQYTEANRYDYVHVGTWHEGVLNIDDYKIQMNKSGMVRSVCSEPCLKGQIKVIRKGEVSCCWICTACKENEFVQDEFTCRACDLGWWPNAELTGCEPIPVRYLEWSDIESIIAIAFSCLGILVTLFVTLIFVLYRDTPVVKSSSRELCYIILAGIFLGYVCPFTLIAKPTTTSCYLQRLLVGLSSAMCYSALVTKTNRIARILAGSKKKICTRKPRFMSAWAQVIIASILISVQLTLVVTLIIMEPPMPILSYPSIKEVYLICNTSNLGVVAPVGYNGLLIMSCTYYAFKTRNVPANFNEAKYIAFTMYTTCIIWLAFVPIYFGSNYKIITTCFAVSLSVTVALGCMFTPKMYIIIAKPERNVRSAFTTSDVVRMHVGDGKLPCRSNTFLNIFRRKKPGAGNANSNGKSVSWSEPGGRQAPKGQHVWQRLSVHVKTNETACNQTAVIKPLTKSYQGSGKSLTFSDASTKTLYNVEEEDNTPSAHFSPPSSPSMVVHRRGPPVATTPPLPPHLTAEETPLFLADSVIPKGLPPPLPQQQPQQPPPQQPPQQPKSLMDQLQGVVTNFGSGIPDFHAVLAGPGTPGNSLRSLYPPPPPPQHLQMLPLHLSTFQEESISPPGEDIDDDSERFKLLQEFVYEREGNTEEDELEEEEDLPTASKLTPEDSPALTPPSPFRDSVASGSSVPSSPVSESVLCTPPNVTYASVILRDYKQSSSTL
# [3] = test system: GFP-positive Purkinje cells infected with AAV-L7-mGlu1^CBC; assay: chemLTD recording in GFP-positive Purkinje cells, slices infected with AAV-L7-mGlu1^CBC; assay type: cell-based, mouse; conditions: for PF-EPSC amplitude normalized to time 0, individual Purkinje cells / PF-EPSC amplitude normalized to time 0, mean of cells: AAV-L7-mGlu1CBC
smiles,measurement,setting,value
Cc1ccnc(-c2cc(COCCCS(=O)(=O)[O-])ccn2)c1.[Cl][Pd][Cl].[Na+] [Pd(sulfo-bpy)],chemLTD: normalized PF-EPSC amplitude,"[1]; 1 μM Pd(sulfo-bpy) for 10 min, t = 31−35 min",99 ± 4%
same,PF-EPSC amplitude relative to time 0,[1]; time 11 min,1.305 and 0.7371 and 0.3878 and 0.9487 and 0.6362 and 1.191 and 0.6572 and 0.79
same,PF-EPSC amplitude relative to time 0,[1]; time 12 min,1.203 and 0.9018 and 0.4484 and 1.074 and 0.6455 and 1.19 and 0.9598 and 0.8251
same,PF-EPSC amplitude relative to time 0,[1]; time 13 min,1.075 and 1.089 and 0.5282 and 1.162 and 0.6836 and 1.016 and 0.9614 and 0.7972
same,PF-EPSC amplitude relative to time 0,[1]; time 14 min,1.127 and 1.131 and 0.639 and 1.08 and 0.8118 and 0.8848 and 0.8669 and 0.886
same,PF-EPSC amplitude relative to time 0,[1]; time 15 min,0.8966 and 0.8928 and 0.5282 and 1.038 and 0.8059 and 0.9429 and 0.8907 and 0.8537
same,PF-EPSC amplitude relative to time 0,[1]; time 16 min,1.016 and 0.9829 and 0.5855 and 1.115 and 0.7312 and 0.9396 and 0.9005 and 0.8573
same,PF-EPSC amplitude relative to time 0,[1]; time 17 min,1.118 and 0.828 and 0.627 and 1.083 and 0.6712 and 0.9977 and 1.081 and 0.8535
same,PF-EPSC amplitude relative to time 0,[1]; time 18 min,1.106 and 0.9208 and 0.5918 and 1.166 and 0.7081 and 1.026 and 1.038 and 0.9503
same,PF-EPSC amplitude relative to time 0,[1]; time 19 min,1.038 and 0.7989 and 0.7251 and 1.08 and 0.721 and 0.8774 and 0.9331 and 0.9414
same,PF-EPSC amplitude relative to time 0,[1]; time 20 min,1.053 and 0.8133 and 0.2871 and 1.2251 and 0.7983 and 1.16 and 1.101 and 0.9444
same,PF-EPSC amplitude relative to time 0,[1]; time 21 min,1.169 and 0.7496 and 1.002 and 1.096 and 0.7681 and 0.9902 and 1.174 and 0.9728
same,PF-EPSC amplitude relative to time 0,[1]; time 22 min,1.26 and 0.9695 and 1.072 and 1.131 and 0.7557 and 1.075 and 1.029 and 0.936
same,PF-EPSC amplitude relative to time 0,[1]; time 23 min,1.263 and 0.7868 and 0.9511 and 1.11
same,"Ca2+ response, concentration dependence (Fig.4f)",[2]; 0.01 µM Pd complex,0.001442
same,"Ca2+ response, concentration dependence (Fig.4f)",[2]; 0.03 µM Pd complex,-0.01191
same,"Ca2+ response, concentration dependence (Fig.4f)",[2]; 0.1 µM Pd complex,-0.00118
same,"Ca2+ response, concentration dependence (Fig.4f)",[2]; 0.3 µM Pd complex,0.1279
same,"Ca2+ response, concentration dependence (Fig.4f)",[2]; 1 µM Pd complex,0.241
same,"Ca2+ response, concentration dependence (Fig.4f)",[2]; 3 µM Pd complex,0.3078
same,"Receptor activation (Ca2+ response, Δratio)",[2]; 3 μM Pd(bpy) derivative,successfully activated
same,"Ca2+ response, concentration dependence (Fig.4f)",[2]; 10 µM Pd complex,0.4466
same,"Ca2+ response, concentration dependence (Fig.4f)",[2]; 30 µM Pd complex,0.3481
same,EC50,"[2]; HEK293 cells, Fura-2, read-out: EC50, Ca2+ response (Δratio)",620 nM
same,"Ca2+ response to Pd complex, individual cells #1-#20 (Fig.4e)",[2]; single-cell values,0.8899 and 0.2578 and 0.9132 and -0.001662 and 0.6326 and 0.4158 and 0.6574 and 1.139 and -0.004669 and -0.01576 and 0.5967 and 0.1275 and -0.001162 and 0.09754 and -0.01851 and 1.312 and 1.093 and 0.7225 and 0.4683 and -0.003462
same,chemLTD: normalized PF-EPSC amplitude,"[3]; 1 μM Pd(sulfo-bpy), t = 31−35 min",66 ± 5%
same,"PF-EPSC amplitude normalized to time 0, individual Purkinje cells",[3]; Time 11 min,0.7232 and 0.9829 and 0.3767 and 0.7388 and 0.7918 and 0.8459 and 0.9915
same,"PF-EPSC amplitude normalized to time 0, mean of cells",[3]; Time 11 min,0.7787
same,"PF-EPSC amplitude normalized to time 0, individual Purkinje cells",[3]; Time 12 min,0.6425 and 0.801 and 0.5915 and 0.6003 and 0.6904 and 0.8371 and 0.8565
same,"PF-EPSC amplitude normalized to time 0, mean of cells",[3]; Time 12 min,0.717
same,"PF-EPSC amplitude normalized to time 0, individual Purkinje cells",[3]; Time 13 min,0.6471 and 0.7787 and 0.7013 and 0.6809 and 0.7803 and 0.6727 and 0.8538
same,"PF-EPSC amplitude normalized to time 0, mean of cells",[3]; Time 13 min,0.7307
same,"PF-EPSC amplitude normalized to time 0, individual Purkinje cells",[3]; Time 14 min,0.6499 and 0.8303 and 0.7622 and 0.6113 and 0.7456 and 0.6953 and 0.8046
same,"PF-EPSC amplitude normalized to time 0, mean of cells",[3]; Time 14 min,0.7285
same,"PF-EPSC amplitude normalized to time 0, individual Purkinje cells",[3]; Time 15 min,0.6409 and 0.6767 and 0.8117 and 0.6223 and 0.7031 and 0.7146 and 0.8496
same,"PF-EPSC amplitude normalized to time 0, mean of cells",[3]; Time 15 min,0.717
same,"PF-EPSC amplitude normalized to time 0, individual Purkinje cells",[3]; Time 16 min,0.6376 and 0.7978 and 1.028 and 0.6558 and 0.8297 and 0.5765 and 0.8295
same,"PF-EPSC amplitude normalized to time 0, mean of cells",[3]; Time 16 min,0.765
same,"PF-EPSC amplitude normalized to time 0, individual Purkinje cells",[3]; Time 17 min,0.5747 and 0.6569 and 0.9755 and 0.6298 and 0.8796 and 0.5758 and 0.8309
same,"PF-EPSC amplitude normalized to time 0, mean of cells",[3]; Time 17 min,0.7319
same,"PF-EPSC amplitude normalized to time 0, individual Purkinje cells",[3]; Time 18 min,0.6181 and 0.7827 and 0.9415 and 0.633 and 0.8865 and 0.5391 and 0.791
same,"PF-EPSC amplitude normalized to time 0, mean of cells",[3]; Time 18 min,0.7417
same,"PF-EPSC amplitude normalized to time 0, individual Purkinje cells",[3]; Time 19 min,0.6525 and 0.7374 and 0.8732 and 0.5834 and 0.9022 and 0.5765 and 0.7947
same,"PF-EPSC amplitude normalized to time 0, mean of cells",[3]; Time 19 min,0.7314
same,"PF-EPSC amplitude normalized to time 0, individual Purkinje cells",[3]; Time 20 min,0.6393 and 0.699 and 0.8317 and 0.5962 and 0.9401 and 0.5543 and 0.7516
same,"PF-EPSC amplitude normalized to time 0, mean of cells",[3]; Time 20 min,0.716
same,"PF-EPSC amplitude normalized to time 0, individual Purkinje cells",[3]; Time 21 min,0.6574 and 0.7237 and 1.073 and 0.5004 and 0.9213 and 0.5453 and 0.8183
same,"PF-EPSC amplitude normalized to time 0, mean of cells",[3]; Time 21 min,0.7484
same,"PF-EPSC amplitude normalized to time 0, individual Purkinje cells",[3]; Time 22 min,0.698 and 0.6854 and 0.7706 and 0.5876 and 1.007 and 0.5965 and 0.7681
same,"PF-EPSC amplitude normalized to time 0, mean of cells",[3]; Time 22 min,0.7305
same,"PF-EPSC amplitude normalized to time 0, individual Purkinje cells",[3]; Time 23 min,0.6936 and 0.7382 and 0.9273 and 0.5926 and 0.9601 and 0.5241 and 0.7745
same,"PF-EPSC amplitude normalized to time 0, mean of cells",[3]; Time 23 min,0.7443
same,"PF-EPSC amplitude normalized to time 0, individual Purkinje cells",[3]; Time 24 min,0.6834 and 0.653 and 0.9054 and 0.6969 and 0.9426 and 0.569 and 0.7678
same,"PF-EPSC amplitude normalized to time 0, mean of cells",[3]; Time 24 min,0.7455
same,"PF-EPSC amplitude normalized to time 0, individual Purkinje cells",[3]; Time 25 min,0.6421 and 0.6906
same,"PF-EPSC amplitude normalized to time 0, mean of cells",[3]; Time 25 min,0.7344
same,"PF-EPSC amplitude normalized to time 0, mean of cells",[3]; Time 26 min,0.7041
same,"PF-EPSC amplitude normalized to time 0, mean of cells",[3]; Time 27 min,0.6979
same,"PF-EPSC amplitude normalized to time 0, mean of cells",[3]; Time 28 min,0.6908
same,"PF-EPSC amplitude normalized to time 0, mean of cells",[3]; Time 29 min,0.7115
same,"PF-EPSC amplitude normalized to time 0, mean of cells",[3]; Time 30 min,0.7
same,"PF-EPSC amplitude normalized to time 0, mean of cells",[3]; Time 31 min,0.6852
same,"PF-EPSC amplitude normalized to time 0, mean of cells",[3]; Time 32 min,0.6868
same,"PF-EPSC amplitude normalized to time 0, mean of cells",[3]; Time 33 min,0.6788
same,"PF-EPSC amplitude normalized to time 0, mean of cells",[3]; Time 34 min,0.6319
same,"PF-EPSC amplitude normalized to time 0, mean of cells",[3]; Time 35 min,0.6255
